From patent publication US12208181B2, “Medication infusion components and systems” (MEDTRONIC MINIMED, INC., priority 2017, dated 2025)
Entries after “also recorded” stand apart in the source; their conditions may differ.

Assays:
[1] = tested on: diabetic porcine model; assay: Insulin infusion site-loss study in diabetic porcine model (extended wear infusion set); assay type: in vivo, pig; details: for Effect on site-loss compared with control: diabetic pigs, agent given with insulin (Humalog) infusion, control without agent; for No site loss for: Sof-Set
Method: The objectives of this study include duplicating the site-loss phenomena observed in previous studies using a diabetic porcine model. Additionally, various infusion set configurations are evaluated for reducing site-loss and extending infusion set wear. Further, site-loss is mitigated using a response-inhibiting agent and/or infusion pump to increase reliability of wear for 3 days and extend infusion set wear beyond 3 days.
The objectives of this study include: duplicating the site-loss phenomena observed in previous studies using the diabetic porcine model; using the established diabetic porcine model to evaluate the effects of various infusion set designs on infusion site-loss; and testing if site-loss can be mitigated by direct pump infusing of immunosuppressant/anti-inflammatory drugs, and/or by modifying infusion set by drug coating.
This study is designed so that each set (inserted under anesthesia) is to be worn for 1 week unless there was set failure/dislodge. Glucose is monitored by a blood glucose meter and Enlite™ sensor. The criteria for determining site loss is that blood glucose is greater than 350 mg/dl and fails to decrease following an insulin dose correction. During biopsy pumps are removed but the cannula is maintained in-situ. Site skin is examined for edema/erythema (swell/redness) (see FIG. 8).

[2] = tested on: normal and diabetic Yucatan pigs; assay: PK/PD study: blood glucose response to Humalog; assay type: in vivo
From the text: (§1) The goal of studying insulin infusion site-loss using a diabetic porcine model is to establish the methods and animal model necessary to reproduce the phenomenon of site-loss in Continuous Subcutaneous Insulin Infusion (CSII). Methodologies are established for evaluating infusion sites in healthy and diabetic pigs, including device placement and animal management, glucose monitoring, insulin detection, pharmacokinetics, site harvesting, and pathological evaluation. The host response to implanted functional devices is assessed in healthy and diabetic pigs. Parameters that are believed to impact site-loss are varied until site-loss is observed.

[3] = tested on: diabetic Yucatan pigs; assay: Site-loss evaluation during CSII (Example 1); assay type: in vivo
From the text: as §1
Site-loss was evaluated using a criteria of a prolonged high blood glucose level (greater than 350 mg/dl) as well as being ineffectively controlled by increasing insulin basal/bolus rate. Site-loss observed was pig dependent, sometimes site-dependent. […] The other two pigs (#341425 and #341426) had no site-loss in 7 days if a proper site was located. In general, the pigs with observed site-loss were less responsive to a Humalog™ dose. Histologically, the predominant tissue response was inflammation and, with longer infusion, fibrosis. Inflammation scores trended to be of higher grade in diabetic pigs compared to normal pigs, with a larger inflammation area around the catheter tip. […]

[4] = tested on: diabetic pig; assay: Histopathology of infusion sites (inflammation at catheter tip and body); assay type: in vivo
From the text: FIG. 2A is a series of histologic evaluations at the catheter tip showing the inflammatory response (score), and size of the area with tissue reaction. “*” indicates the catheter location and “F” indicates normal fat. […] FIG. 2B is a series of graphs illustrating the inflammation at the catheter tip for diabetic and non-diabetic pigs. Localized inflammation loosely correlated with site-loss.
FIG. 2C is a series of graphs illustrating the predominate inflammation cells at the catheter tip and catheter body (qualitative). To isolate the main inflammation contributors, a catheter, a catheter infused with insulin (Humalog™), and a catheter infused with placebo were placed on a diabetic pig at the same time.
FIG. 2D is a series of graphs illustrating the predominate inflammation cells at the catheter tip and catheter body of an insulin injection port (i-Port™). To isolate the main inflammation contributors, a catheter, a catheter infused with insulin, and a catheter infused with placebo were placed on a diabetic pig. Compared to continuous infusion, the giant cells are missing in the i-Port™ study. […] As observed by the pathologist, the pigs may have developed a hypersensitivity to the Humalog™ and such a reaction would contribute to the inflammation seen (the degree that hypersensitivity is influencing the inflammation is unclear but it could be one of the main drivers).

[5] = tested on: diabetic porcine model; assay: Local toxicity observation in diabetic porcine model; details: prefilled heparin/insulin, Sof-Set; heparin 100-800 U/mL insulin (U100)
[6] = diabetic pigs, compared to catheter and placebo

Compound: C[C@H]1C[C@H]2[C@@H]3CCC4=CC(=O)C=C[C@]4(C)[C@@]3(F)[C@@H](O)C[C@]2(C)[C@@]1(O)C(=O)COP(=O)([O-])[O-].[Na+].[Na+] [BSP, Betamethasone Sodium phosphate]
- Effect on site-loss compared with control [1]: performing significantly worse than the control

Compound: C[C@@H]1C[C@H]2[C@@H]3CCC4=CC(=O)C=C[C@]4(C)[C@@]3(F)[C@@H](O)C[C@]2(C)[C@@]1(O)C(=O)COP(=O)(O)O [DXP, Dexamethasone Phosphate]
- Effect on site-loss compared with control [1]: performing significantly worse than the control

Compound: CO[C@H]1C[C@@H]2CC[C@@H](C)[C@@](O)(O2)C(=O)C(=O)N2CCCC[C@H]2C(=O)O[C@H]([C@H](C)C[C@@H]2CC[C@@H](O)[C@H](OC)C2)CC(=O)[C@H](C)/C=C(\C)[C@@H](O)[C@@H](OC)C(=O)[C@H](C)C[C@H](C)/C=C/C=C/C=C/1C [rapamycin]
- Effect on Site-Loss: site-loss after / duration of wear ([1]; 1 pig using Sof-Set, rapamycin later found degraded in solution after use): 5 days
- Signs of improvement: recovery after ([1]; rapamycin dosed with Humalog): around 6 days
- No site loss for ([1]; rapamycin spiked in insulin, around 0.6 μg/day): more than 6 days

Compound: Insulin lispro [Humalog]
- Blood glucose lowering [2]: effectively lower blood glucose level
- Site-loss observed at ([3]; pigs #341423 and #341424, blood glucose >350 mg/dl criterion): approximately 3 days
- No site-loss in ([3]; pigs #341425 and #341426, if a proper site was located): > 7 days
- Order of evaluated inflammation scores ([4]; catheter, catheter infused with insulin (Humalog), catheter infused with placebo on one diabetic pig): insulin≥placebo≥catheter; also recorded: insulin≥placebo≥cannula
- Localized inflammation [4, 6]: associated with increased localized inflammation
- Localized tissue fibrosis [4, 6]: main contributor to localized tissue fibrosis

Compound: dextran
- Infusion site active ([1]; Sof-Set with dextran dosed insulin (FIG. 22)): up to 6 days
- Effect on site-loss compared with control [1]: performing significantly better than the control
- Efficacy in extending infusion set wear / site-loss mitigation (in words) ([1]; diabetic porcine model): efficacy of dextran in extending infusion set wear

Compound: heparin
- Infusion site active ([1]; Sof-Set with heparin dosed insulin (FIGS. 17, 18)): up to 13 days
- Site-loss (glucose monitoring) ([1]; U100 Humalog with heparin sodium, actual 3.55 mg/mL or 685 U/mL, continuous infusion, pigs IM3 and IM4): > 6 days
- Effect on site-loss compared with control [1]: performing significantly better than the control
- No site loss for ([1]; prefilled heparin/insulin, heparin 100-800 U/mL insulin (U100)): greater than 13 days
- Local toxicity [5]: No local toxicity was observed
